The assay in a line: in vitro test of lightening of synthetic melanin (absorbance at 405 nm). In kind it is biochemical. To be noted: melanin absorbance at 405 nm relative to vehicle control, two weeks. Here is the method:
Fabiana imbricata extract (having between 15,000 and 30,000 units/g of glucose oxidase activity) was examined for its ability to lighten melanin in an in vitro test. A solution of synthetic melanin at a concentration of 0.025% in dimethyl sulfoxide was prepared. 1 ml was added to each well of a 24-well plate. A 1% stock solution of Fabiana imbricata extract was prepared in phosphate-buffered saline and diluted serially at a ratio of 1:2 yielding 0.5%, 0.25% and 0.125% solutions of Fabiana imbricata extract. Solutions of glucose were prepared similarly. 10 microliters of each concentration of Fabiana imbricata extract was added along with 10 microliters of glucose to 1 ml of the melanin solution in each well of the microplate. Each concentration was tested in triplicate. Three wells received the phosphate-buffered saline as vehicle control. Hydrogen peroxide at 0.3, 0.03 and 0.003% was added to 3 wells each as positive control. The microplate was incubated at room temperature and treatments described above were repeated for a total of ten times over two weeks. At the end of the incubation period, melanin absorbance was measured at 405 nm using a spectrophotometer. Results are summarized in the table below as percent of melanin absorbance relative to vehicle control. A lower absorbance indicates lightening of melanin.

On to `OO` [Example H2O2, Hydrogen peroxide], for which the “% Relative Absorbance” value was determined as 87.5% (0.003% H2O2 positive control), 70.6% (0.03% H2O2 positive control) and 30.6% (0.3% H2O2 positive control).

Source of the values: patent publication US20150342853A1, “Topical Lightening Composition and Methods of Use Thereof” (Avon Products, Inc., priority 2014, published 2015).
